From patent US20240116946A1 (Gilead Sciences, Inc., priority 2022, published 2024)
Like-named read-outs stand apart in the source and are kept apart here.

Tests used:
[1] = biological target: recombinant SARS-CoV-2 Main protease (Mpro) (Severe acute respiratory syndrome coronavirus 2 (2019-nCoV) (SARS-CoV-2), UniProt P0DTD1); test: Cov Mpro Biochemical IC50 Assay; details: read-out: MPro IC50
[2] = system: SARS-CoV-2-NLuc; test: microbe, parasite or virus in culture; format: cell-based, SARS Coronavirus 2
[3] = recombinant SARS-CoV-2 Mpro 7.5 nM, fluorogenic peptide substrate 40 μM
[4] = Severe acute respiratory syndrome coronavirus, 48 h; read-out: MPro EC50
[5] = Severe acute respiratory syndrome coronavirus, 48 h, read-out: MPro EC50
[6] = recombinant SARS-CoV-2 Mpro, fluorogenic peptide substrate

In the case of `COc1cc(-c2cc3c(s2)c(=O)n(-c2cncc4cnn(C)c24)c(=O)n3CCC#N)c(Cl)cc1Cl` [Example 1017, 3-[6-(2,4-dichloro-5-methoxy-phenyl)-3-(1-methylpyrazolo[4,3-c]pyridin-7-yl)-2,4-dioxo-thieno[3,2-d]pyrimidin-1-yl]propanenitrile], the IC50 [1, 3] is reported as 0.00592 µM and the EC50 [2, 4] is reported as 0.00525 µM.

Compound `COc1cc(-c2cc3c(s2)c(=O)n(-c2cncc4nnn(C)c24)c(=O)n3CC2(C#N)CC2)c(Cl)cc1F` [Example 688] has an IC50 [1, 3] of 0.00978 µM and an EC50 [2, 5] of 0.0145 µM.

Compound `O=c1[nH]c2cc(-c3ccccc3Cl)sc2c(=O)n1-c1cncc2c1CCC2` [Example 107] has an IC50 [1, 6] of 0.0318 µM and an EC50 [2, 5] of 0.0717 µM.

`COc1ccc(Cl)c(-c2ccc3c(=O)n(-c4cncc5ccc(F)cc45)c(=O)[nH]c3c2)c1` [Example 371] was tested, and the IC50 [1, 6] was 0.0559 µM and the EC50 [2, 4] was 0.108 µM.

Compound `O=C1COc2ccc(-c3cccc(Cl)c3-c3ccc4c(=O)n(-c5cncc6ccccc56)c(=O)[nH]c4c3)cc2N1` [Example 304] has an IC50 [1, 6] of 0.0115 µM and an EC50 [2, 5] of 0.0205 µM.

`COc1cc(-c2cc3c(s2)c(=O)n(-c2cncc4nc(C(F)F)n(C)c24)c(=O)n3CCC#N)c(Cl)cc1F` [Example 954] gave an IC50 [1, 3] of 0.0145 µM and an EC50 [2, 5] of 0.026 µM.

`COc1cc(-c2cc3c(s2)c(=O)n(-c2cncc(C#N)c2C)c(=O)n3CCC#N)c(Cl)cc1F` [Example 868] showed an IC50 [1, 3] of 0.00986 µM and an EC50 [2, 5] of 0.0261 µM.

Compound `N#Cc1ccccc1-c1nc2[nH]c(=O)n(-c3cncc4ccccc34)c(=O)c2s1` [Example 118, 2-(6-(isoquinolin-4-yl)-5,7-dioxo-4,5,6,7-tetrahydrothiazolo[4,5-d]pyrimidin-2-yl)benzonitrile] has an IC50 [1, 6] of 0.29 µM and an EC50 [2, 4] of 11.7 µM.

In the case of `COc1cc(-c2cc3c(s2)c(=O)n(-c2cncc4cnn(C)c24)c(=O)n3CCC#N)c(C)cc1F` [Example 665], the IC50 [1, 3] is reported as 0.00727 µM and the EC50 [2, 5] is reported as 0.0105 µM.

In the case of `COc1ccc(Cl)c(-c2cc3[nH]c(=O)n(-c4cncc5ccc(N6CCn7nc(C(F)(F)F)nc7C6)cc45)c(=O)c3s2)c1` [Example 604], the IC50 [1, 3] is reported as 0.00632 µM and the EC50 [2, 5] is reported as 0.0109 µM.

For `COc1cc(-c2cc3[nH]c(=O)n(-c4cncc5ccccc45)c(=O)c3cc2OC)c(C#N)cc1F` (single isomer, unassigned) [Example 571, 5-fluoro-2-[3-(4-isoquinolyl)-6-methoxy-2,4-dioxo-1H-quinazolin-7-yl]-4-methoxy-benzonitrile], the IC50 [1, 3] was 0.0771 µM and the EC50 ([2]; read-out: MPro EC50) was 0.171 µM.

Work on `COc1ccc(Cl)c(-c2cc3[nH]c(=O)n(-c4cncc5cc(F)ccc45)c(=O)c3s2)c1` [Example 580, 6-(2-chloro-5-methoxyphenyl)-3-(7-fluoroisoquinolin-4-yl)thieno[3,2-d]pyrimidine-2,4(1H,3H)-dione] yielded an IC50 [1, 3] of 0.00753 µM and an EC50 [2, 5] of 0.0709 µM.

Compound `O=c1[nH]c2cc(-c3ccccc3Cl)ccc2c(=O)n1-c1cncc2cccnc12` [Example 450] has an IC50 [1, 3] of 0.127 µM and an EC50 [2, 5] of 0.211 µM.

In the case of `O=c1[nH]c2cc(-c3c(Cl)cccc3-c3cncc(N4CCOCC4)c3)ccc2c(=O)n1-c1cncc2ccccc12` [Example 279], the IC50 [1, 6] is reported as 0.00527 µM and the EC50 [2, 5] is reported as 0.00765 µM.

`COc1cc(-c2cc3c(s2)c(=O)n(-c2cncc4c2c(C)nn4C)c(=O)n3CCC#N)c(Cl)cc1F` (single isomer, unassigned) [Example 1043, 3-(6-(2-chloro-4-fluoro-5-methoxyphenyl)-3-(1,3-dimethyl-1H-pyrazolo[3,4-c]pyridin-4-yl)-2,4-dioxo-3,4-dihydrothieno[3,2-d]pyrimidin-1(2H)-yl)propanenitrile] gave an IC50 [1, 3] greater than 1 µM and an EC50 ([2]; read-out: MPro EC50) greater than 1 µM.

`COc1ccc(Cl)c(-c2cc3[nH]c(=O)n(-c4cncc5cccnc45)c(=O)c3s2)c1` [Example 456, 6-(2-chloro-5-methoxyphenyl)-3-(1,6-naphthyridin-8-yl)thieno[3,2-d]pyrimidine-2,4(1H,3H)-dione] gave an IC50 [1, 3] of 0.00359 µM and an EC50 [2, 5] of 0.00679 µM.

With `O=c1[nH]c2cc(-c3ccccc3Cl)sc2c(=O)n1-c1cncc2ccc(N3CCOCC3)cc12` (single isomer, unassigned) [Example 443, 6-(2-chlorophenyl)-3-(6-morpholinoisoquinolin-4-yl)thieno[3,2-d]pyrimidine-2,4(1H,3H)-dione] the IC50 [1, 3] was 0.0188 µM and the EC50 ([2]; read-out: MPro EC50) was 0.045 µM.

`Cn1ccc(-c2cccc(Cl)c2-c2ccc3c(=O)n(-c4cncc5ccccc45)c(=O)[nH]c3c2)n1` [Example 146] was tested, and the IC50 [1, 6] was 0.0997 µM and the EC50 [2, 5] was 0.0606 µM.

`COc1cc(-c2cc3[nH]c(=O)n(-c4c(C)ccnc4F)c(=O)c3s2)c(Cl)cc1F` [Example 738] gave an IC50 [1, 3] of 0.0134 µM and an EC50 [2, 4] of 0.0262 µM.

For `Cn1ncc(-c2cccc(Cl)c2-c2ccc3c(=O)n(-c4cncc5ccccc45)c(=O)[nH]c3c2)c1C(F)(F)F` [Example 272], the IC50 [1, 6] was 0.212 µM and the EC50 [2, 5] was 0.0396 µM.

In the case of `COc1cc(-c2cc3c(s2)c(=O)n(-c2cncc4cccnc24)c(=O)n3CC2(C#N)CC2)c(Cl)cc1F` [Example 709], the IC50 [1, 3] is reported as 0.00621 µM and the EC50 [2, 5] is reported as 0.00209 µM.

In the case of `COc1cc(-c2cc3c(s2)c(=O)n(-c2cncc4cnn(C)c24)c(=O)n3CCC#N)c(C#N)cn1` [Example 776], the IC50 [1, 3] is reported as 0.233 µM and the EC50 [2, 5] is reported as 0.579 µM.

With `O=c1[nH]c2cc(-c3ccccc3Cl)sc2c(=O)n1-c1cncc2cn(CC(F)(F)F)nc12` [Example 494] the IC50 [1, 3] was 0.036 µM and the EC50 [2, 5] was 0.118 µM.

Work on `COc1ccc(Cl)c(-c2cc3[nH]c(=O)n(-c4cncc5cn(CC(F)(F)F)nc45)c(=O)c3s2)c1` [Example 502] yielded an IC50 [1, 3] of less than 0.00254 µM and an EC50 [2, 5] of 0.0348 µM.

For `COc1cc(-c2cc3c(s2)c(=O)n(-c2cncc4nc(C)n(C)c24)c(=O)n3CCC#N)c(C#N)cc1F` [Example 855], the IC50 [1, 3] was 0.019 µM and the EC50 [2, 5] was 0.498 µM.

Compound `N#Cc1ncccc1-c1cc2[nH]c(=O)n(-c3cncc4ccccc34)c(=O)c2s1` [Example 538] has an IC50 [1, 3] of 0.0598 µM and an EC50 [2, 5] of 0.826 µM.

`Cc1cncc(-n2c(=O)c3sc(-c4ccccc4C#N)cc3n(CC3(C#N)CC3)c2=O)c1` [Example 802] gave an IC50 [1, 3] of 0.00302 µM and an EC50 [2, 4] of 0.00709 µM.

With `O=c1[nH]c2cc(-c3ccccc3Cl)sc2c(=O)n1-c1cnnc2ccccc12` [Example 131] the IC50 [1, 6] was 0.097 µM and the EC50 [2, 5] was 0.633 µM.

Compound `O=c1[nH]c2cc(-c3c(Cl)cccc3Cl)sc2c(=O)n1-c1cncc(C2CC2)c1` [Example 370, 3-(5-cyclopropylpyridin-3-yl)-6-(2,6-dichlorophenyl)thieno[3,2-d]pyrimidine-2,4(1H,3H)-dione] has an IC50 [1, 6] of 0.273 µM and an EC50 [2, 4] of 0.388 µM.

`COc1ccc(Cl)c(-c2cc3[nH]c(=O)n(-c4cncc5cnn(C)c45)c(=O)c3s2)c1` [Example 498] showed an IC50 [1, 3] of less than 0.00254 µM and an EC50 [2, 5] of less than 0.00596 µM.

`COc1ccc(C#N)c(-c2cc3[nH]c(=O)n(-c4cncc5cccc(F)c45)c(=O)c3s2)c1` [Example 446] gave an IC50 [1, 3] of 0.00874 µM and an EC50 [2, 5] of 0.0255 µM.

Work on `O=c1[nH]c2cc(-c3c(Cl)cccc3-c3cnn4c3OCCC4)ccc2c(=O)n1-c1cncc2ccccc12` [Example 325] yielded an IC50 [1, 6] of 0.0158 µM and an EC50 [2, 5] of 0.0279 µM.

Compound `Cc1ccc(C#N)c(-c2cc3c(s2)c(=O)n(-c2cncc4cnn(C)c24)c(=O)n3CCC#N)c1` [Example 784] has an IC50 [1, 3] of 0.0108 µM and an EC50 [2, 5] of 0.0471 µM.

With `COc1cc(-c2cc3c(s2)c(=O)n(-c2cncc4nc(C)n(C)c24)c(=O)n3CCC#N)c(Cl)cc1F` (single isomer, unassigned) [Example 970, 3-(6-(2-chloro-4-fluoro-5-methoxyphenyl)-3-(1,2-dimethyl-1H-imidazo[4,5-c]pyridin-7-yl)-2,4-dioxo-3,4-dihydrothieno[3,2-d]pyrimidin-1(2H)-yl)propanenitrile] the IC50 [1, 3] was 0.00396 µM and the EC50 ([2]; read-out: MPro EC50) was 0.0189 µM.

`O=c1[nH]c2cc(-c3ccsc3Cl)sc2c(=O)n1-c1cncc2ccccc12` [Example 21] showed an IC50 [1, 6] of 0.0325 µM and an EC50 [2, 5] of 0.204 µM.

`Cc1nnc2n1CCN(c1ccc3cncc(-n4c(=O)[nH]c5cc(-c6ccccc6Cl)sc5c4=O)c3c1)C2` [Example 396] gave an IC50 [1, 3] of 0.0149 µM and an EC50 [2, 5] of 3.01 µM.

In the case of `COc1cc(-c2cc3[nH]c(=O)n(-c4cncc5ccccc45)c(=O)c3s2)c(C)cc1C` [Example 717], the IC50 [1, 3] is reported as 0.0238 µM and the EC50 [2, 5] is reported as 0.0253 µM.

`COc1cc(-c2ccc3c(=O)n(-c4cncc5ccccc45)c(=O)[nH]c3c2)c(C#N)cn1` [Example 335] gave an IC50 [1, 6] of 0.29 µM and an EC50 [2, 5] of 0.991 µM.

Compound `O=c1[nH]c2cc(-c3ccccc3Cl)sc2c(=O)n1-c1cncc(OCC(F)(F)F)c1` [Example 381] has an IC50 [1, 6] of 5.07 µM and an EC50 [2, 5] of 0.145 µM.

In the case of `COc1cc(-c2cc3[nH]c(=O)n(-c4cc(C)cnn4)c(=O)c3s2)c(Cl)cc1F` [Example 746], the IC50 [1, 3] is reported as 0.00417 µM and the EC50 [2, 5] is reported as 0.0543 µM.

In the case of `N#Cc1cc(-c2cc3[nH]c(=O)n(-c4cncc5ccccc45)c(=O)c3s2)c(Cl)cc1F` [Example 646], the IC50 [1, 3] is reported as 1.9 µM and the EC50 [2, 5] is reported as 11.8 µM.

Work on `COc1cc(-c2cc3c(s2)c(=O)n(-c2cncc4nnn(C)c24)c(=O)n3CCC#N)c(Cl)cc1F` [Example 936, 3-(6-(2-chloro-4-fluoro-5-methoxyphenyl)-3-(1-methyl-1H-[1,2,3]triazolo[4,5-c]pyridin-7-yl)-2,4-dioxo-3,4-dihydrothieno[3,2-d]pyrimidin-1(2H)-yl)propanenitrile] yielded an IC50 [1, 3] of 0.00546 µM and an EC50 [2, 5] of 0.00665 µM.

With `O=c1[nH]c2cc(-c3ccccc3Cl)ccc2c(=O)n1-c1cncnc1` [Example 123] the IC50 [1, 6] was greater than 100 µM and the EC50 [2, 5] was 47 µM.

`Cn1ncc2cncc(-n3c(=O)[nH]c4cc(-c5ccccc5Cl)sc4c3=O)c21` [Example 495] showed an IC50 [1, 3] of 0.00641 µM and an EC50 [2, 5] of 0.0172 µM.

In the case of `COc1cc(-c2cc3c(s2)c(=O)n(-c2cncc4cnn(C)c24)c(=O)n3C2CC2C#N)c(Cl)cc1F` (centres unmarked) [Example 1005, 2-(6-(2-chloro-4-fluoro-5-methoxyphenyl)-3-(1-methyl-1H-pyrazolo[4,3-c]pyridin-7-yl)-2,4-dioxo-3,4-dihydrothieno[3,2-d]pyrimidin-1(2H)-yl)cyclopropane-1-carbonitrile], the IC50 [1, 3] is reported as 0.0385 µM and the EC50 ([2]; read-out: MPro EC50) is reported as 0.0529 µM.

Work on `COc1cc(-c2cc3[nH]c(=O)n(-c4cncc5ccccc45)c(=O)c3cc2OC)c(Cl)cc1F` [Example 672, 7-(2-chloro-4-fluoro-5-methoxyphenyl)-3-(isoquinolin-4-yl)-6-methoxyquinazoline-2,4(1H,3H)-dione] yielded an IC50 [1, 3] of 0.0378 µM and an EC50 [2, 5] of 0.0238 µM.
